Test [1] has as its target Mast/stem cell growth factor receptor Kit (Homo sapiens, UniProt P10721). As to conditions: 5 uM.
Description: Inhibition of c-KIT in imatinib-resistant human HMC-1.2 cells assessed as suppression of Akt phosphorylation at 5 uM after 1 hr by Western immunoblotting analysis
The target of test [2] is Hepatocyte growth factor receptor (Homo sapiens) (UniProt P08581). Description: Inhibition of MET (unknown origin) at 1 uM by KINOMEscanning assay relative to control; values are per cent of control.
The target of test [3] is RAC-beta serine/threonine-protein kinase (Homo sapiens) (UniProt P31751). Nature of the test: Inhibition of AKT2 (unknown origin) at 1 uM by KINOMEscanning assay relative to control; values are per cent of control.
Test [4] addresses Tyrosine-protein kinase JAK2 (Homo sapiens) (UniProt O60674). Nature of the test: Inhibition of JAK2 (unknown origin) at 1 uM by KINOMEscanning assay relative to control; values are per cent of control.
The target of test [5] is Dual specificity mitogen-activated protein kinase kinase 2 (Homo sapiens) (UniProt P36507). Description: Inhibition of MEK2 (unknown origin) at 1 uM by KINOMEscanning assay relative to control; values are per cent of control.
Test [6] concerns the target Serine/threonine-protein kinase pim-1 (Homo sapiens) (UniProt P11309). Description: Inhibition of PIM1 (unknown origin) at 1 uM by KINOMEscanning assay relative to control; values are per cent of control.
For test [7], the target named is High affinity nerve growth factor receptor (Homo sapiens) (UniProt P04629). Description: Inhibition of TRKA (unknown origin) at 1 uM by KINOMEscanning assay relative to control; values are per cent of control.
In test [8] the target is Fibroblast growth factor receptor 2 (Homo sapiens) (UniProt P21802). Nature of the test: Inhibition of FGFR2 (unknown origin) at 1 uM by KINOMEscanning assay relative to control; values are per cent of control.
For test [9], the target named is Insulin-like growth factor 1 receptor (Homo sapiens) (UniProt P08069). Nature of the test: Inhibition of IGF1R (unknown origin) at 1 uM by KINOMEscanning assay relative to control; values are per cent of control.
Test [10] concerns the target T1, 3-phosphoinositide-dependent protein kinase 1 (Homo sapiens) (UniProt O15530).
T1 sequence (whole entry): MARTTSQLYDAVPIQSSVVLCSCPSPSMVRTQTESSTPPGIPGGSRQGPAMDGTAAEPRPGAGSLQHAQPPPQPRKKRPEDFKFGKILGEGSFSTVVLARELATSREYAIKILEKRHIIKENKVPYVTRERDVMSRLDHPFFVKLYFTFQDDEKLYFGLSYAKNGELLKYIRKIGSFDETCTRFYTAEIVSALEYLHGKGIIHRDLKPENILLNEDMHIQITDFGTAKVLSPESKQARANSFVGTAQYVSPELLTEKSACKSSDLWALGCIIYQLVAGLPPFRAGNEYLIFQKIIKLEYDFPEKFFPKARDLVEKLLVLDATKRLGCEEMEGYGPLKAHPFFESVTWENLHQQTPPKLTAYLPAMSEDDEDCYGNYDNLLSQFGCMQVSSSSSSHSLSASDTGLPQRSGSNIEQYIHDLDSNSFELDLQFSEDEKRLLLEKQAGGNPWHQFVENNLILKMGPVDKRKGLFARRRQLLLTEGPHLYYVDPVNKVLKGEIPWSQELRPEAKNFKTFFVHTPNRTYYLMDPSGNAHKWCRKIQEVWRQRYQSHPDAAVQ
Description: Inhibition of PDPK1 (unknown origin) at 1 uM by KINOMEscanning assay relative to control; values are per cent of control.

For test [11], the target named is Vascular endothelial growth factor receptor 2 (Homo sapiens) (UniProt P35968). Description: Inhibition of VEGFR2 (unknown origin) at 1 uM by KINOMEscanning assay relative to control; values are per cent of control.
Test [12] has as its target T2, Inhibitor of nuclear factor kappa-B kinase subunit beta (Homo sapiens) (UniProt O14920).
T2 sequence (whole entry): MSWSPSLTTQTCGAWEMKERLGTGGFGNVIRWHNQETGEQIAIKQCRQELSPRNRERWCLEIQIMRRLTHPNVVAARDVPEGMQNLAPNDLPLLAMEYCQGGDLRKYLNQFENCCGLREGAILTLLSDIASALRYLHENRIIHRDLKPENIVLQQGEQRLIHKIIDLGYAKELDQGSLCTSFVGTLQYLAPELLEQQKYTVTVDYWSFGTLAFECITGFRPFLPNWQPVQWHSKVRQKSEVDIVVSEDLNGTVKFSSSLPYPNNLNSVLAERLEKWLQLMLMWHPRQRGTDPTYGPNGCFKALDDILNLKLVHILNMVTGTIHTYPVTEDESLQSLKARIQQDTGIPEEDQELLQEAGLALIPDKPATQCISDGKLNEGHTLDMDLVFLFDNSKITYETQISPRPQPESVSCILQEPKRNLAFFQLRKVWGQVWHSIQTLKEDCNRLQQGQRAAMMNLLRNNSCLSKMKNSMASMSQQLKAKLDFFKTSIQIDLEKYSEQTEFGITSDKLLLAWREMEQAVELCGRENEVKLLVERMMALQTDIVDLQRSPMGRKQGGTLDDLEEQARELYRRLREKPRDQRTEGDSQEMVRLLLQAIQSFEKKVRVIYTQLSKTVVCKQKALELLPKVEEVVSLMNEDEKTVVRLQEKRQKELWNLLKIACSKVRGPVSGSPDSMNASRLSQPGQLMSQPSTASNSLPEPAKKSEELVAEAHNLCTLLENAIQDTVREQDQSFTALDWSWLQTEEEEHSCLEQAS
Nature of the test: Inhibition of IKKbeta (unknown origin) at 1 uM by KINOMEscanning assay relative to control; values are per cent of control.

For test [13], the target named is Mitogen-activated protein kinase 14 (Homo sapiens) (UniProt Q16539). Nature of the test: Inhibition of p38alpha (unknown origin) at 1 uM by KINOMEscanning assay relative to control; values are per cent of control.
The test system of test [14] is Tyrosine-protein kinase ABL1 (Homo sapiens), P00519 [T315I]. Description: Inhibition of ABL T315I mutant (unknown origin) at 1 uM by KINOMEscanning assay relative to control; values are per cent of control.
Test [15] has as its system Hepatocyte growth factor receptor (Homo sapiens), P08581 [M1250T]. Description: Inhibition of MET M1250T mutant (unknown origin) at 1 uM by KINOMEscanning assay relative to control; values are per cent of control.
Test [16] deals with Mast/stem cell growth factor receptor Kit (Homo sapiens), P10721 [D816H]. Description: Inhibition of c-KIT D816H mutant (unknown origin) at 1 uM by KINOMEscanning assay relative to control; values are per cent of control.

The source made the active and inactive calls. No cut-off for these calls is given here.

Serine/threonine-protein kinase pim-1 (Homo sapiens), sequence (P11309 whole entry, looked up): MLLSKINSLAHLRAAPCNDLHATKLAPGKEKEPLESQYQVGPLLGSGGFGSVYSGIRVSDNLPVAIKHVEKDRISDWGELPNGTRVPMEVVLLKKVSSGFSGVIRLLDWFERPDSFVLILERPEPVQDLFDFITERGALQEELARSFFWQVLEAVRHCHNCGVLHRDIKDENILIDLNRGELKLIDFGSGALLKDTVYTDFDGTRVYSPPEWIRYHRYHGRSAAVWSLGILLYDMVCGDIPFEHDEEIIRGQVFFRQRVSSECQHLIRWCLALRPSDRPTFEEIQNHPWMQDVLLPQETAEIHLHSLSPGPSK
Hepatocyte growth factor receptor (Homo sapiens), P08581 [M1250T], sequence (P08581 whole entry M1250T): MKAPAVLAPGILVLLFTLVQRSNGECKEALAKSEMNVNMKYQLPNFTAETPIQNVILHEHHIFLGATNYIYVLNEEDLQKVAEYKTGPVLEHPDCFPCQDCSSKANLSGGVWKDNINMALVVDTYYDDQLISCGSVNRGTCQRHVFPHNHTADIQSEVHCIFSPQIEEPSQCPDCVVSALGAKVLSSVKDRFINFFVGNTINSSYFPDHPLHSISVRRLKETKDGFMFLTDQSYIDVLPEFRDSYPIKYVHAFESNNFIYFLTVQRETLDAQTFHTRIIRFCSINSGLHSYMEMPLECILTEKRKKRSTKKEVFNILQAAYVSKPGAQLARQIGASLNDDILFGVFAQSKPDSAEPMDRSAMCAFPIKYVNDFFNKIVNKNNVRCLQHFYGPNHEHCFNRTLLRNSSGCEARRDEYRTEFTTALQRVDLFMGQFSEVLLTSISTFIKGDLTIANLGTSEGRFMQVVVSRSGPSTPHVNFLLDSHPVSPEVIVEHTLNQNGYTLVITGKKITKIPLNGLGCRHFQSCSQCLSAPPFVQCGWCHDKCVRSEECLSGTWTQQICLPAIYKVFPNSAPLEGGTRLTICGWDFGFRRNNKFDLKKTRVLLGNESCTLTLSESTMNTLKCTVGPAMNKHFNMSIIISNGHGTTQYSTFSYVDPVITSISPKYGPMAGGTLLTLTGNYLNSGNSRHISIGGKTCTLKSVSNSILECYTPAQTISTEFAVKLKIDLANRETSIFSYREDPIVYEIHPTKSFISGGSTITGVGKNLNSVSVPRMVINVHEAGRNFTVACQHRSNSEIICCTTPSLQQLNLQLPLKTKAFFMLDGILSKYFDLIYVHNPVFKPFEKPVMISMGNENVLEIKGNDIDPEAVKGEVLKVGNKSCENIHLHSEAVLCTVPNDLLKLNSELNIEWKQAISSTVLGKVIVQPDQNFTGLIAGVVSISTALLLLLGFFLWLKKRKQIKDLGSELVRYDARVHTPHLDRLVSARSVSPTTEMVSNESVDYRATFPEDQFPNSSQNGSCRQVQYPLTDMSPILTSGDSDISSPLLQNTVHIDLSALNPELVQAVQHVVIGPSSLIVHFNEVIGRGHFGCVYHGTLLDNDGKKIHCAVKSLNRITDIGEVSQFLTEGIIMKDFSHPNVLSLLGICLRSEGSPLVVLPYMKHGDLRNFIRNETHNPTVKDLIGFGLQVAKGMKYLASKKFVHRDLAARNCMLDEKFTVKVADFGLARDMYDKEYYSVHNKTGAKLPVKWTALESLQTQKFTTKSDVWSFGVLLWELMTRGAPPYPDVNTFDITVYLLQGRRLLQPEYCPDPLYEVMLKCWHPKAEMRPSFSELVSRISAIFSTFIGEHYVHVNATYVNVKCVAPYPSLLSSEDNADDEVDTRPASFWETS
Mast/stem cell growth factor receptor Kit, sequence (P10721 whole entry): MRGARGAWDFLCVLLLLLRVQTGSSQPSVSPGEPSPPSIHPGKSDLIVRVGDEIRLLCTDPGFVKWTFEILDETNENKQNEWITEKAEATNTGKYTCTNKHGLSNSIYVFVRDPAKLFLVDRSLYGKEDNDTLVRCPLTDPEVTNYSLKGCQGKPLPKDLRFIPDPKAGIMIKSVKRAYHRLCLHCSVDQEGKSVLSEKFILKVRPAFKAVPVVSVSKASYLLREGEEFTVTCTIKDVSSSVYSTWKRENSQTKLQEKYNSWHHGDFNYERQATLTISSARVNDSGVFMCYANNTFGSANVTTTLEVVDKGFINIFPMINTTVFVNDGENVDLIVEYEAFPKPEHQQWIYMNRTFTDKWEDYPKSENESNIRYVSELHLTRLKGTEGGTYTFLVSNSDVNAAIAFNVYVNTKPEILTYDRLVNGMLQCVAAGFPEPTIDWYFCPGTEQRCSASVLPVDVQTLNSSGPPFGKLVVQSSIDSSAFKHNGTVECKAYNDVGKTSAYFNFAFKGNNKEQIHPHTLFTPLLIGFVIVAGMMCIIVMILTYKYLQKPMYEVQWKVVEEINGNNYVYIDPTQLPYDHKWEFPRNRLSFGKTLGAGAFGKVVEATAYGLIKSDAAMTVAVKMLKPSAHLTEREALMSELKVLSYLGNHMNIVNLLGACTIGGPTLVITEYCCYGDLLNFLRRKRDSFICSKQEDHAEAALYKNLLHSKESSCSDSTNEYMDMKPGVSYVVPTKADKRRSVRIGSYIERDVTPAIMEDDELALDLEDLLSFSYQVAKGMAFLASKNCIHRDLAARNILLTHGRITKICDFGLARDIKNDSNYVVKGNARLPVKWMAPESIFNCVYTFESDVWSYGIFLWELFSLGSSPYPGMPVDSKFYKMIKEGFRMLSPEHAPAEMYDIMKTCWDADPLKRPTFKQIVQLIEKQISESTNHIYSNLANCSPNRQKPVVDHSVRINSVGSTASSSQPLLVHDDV
Dual specificity mitogen-activated protein kinase kinase 2 (Homo sapiens), sequence (P36507 whole entry): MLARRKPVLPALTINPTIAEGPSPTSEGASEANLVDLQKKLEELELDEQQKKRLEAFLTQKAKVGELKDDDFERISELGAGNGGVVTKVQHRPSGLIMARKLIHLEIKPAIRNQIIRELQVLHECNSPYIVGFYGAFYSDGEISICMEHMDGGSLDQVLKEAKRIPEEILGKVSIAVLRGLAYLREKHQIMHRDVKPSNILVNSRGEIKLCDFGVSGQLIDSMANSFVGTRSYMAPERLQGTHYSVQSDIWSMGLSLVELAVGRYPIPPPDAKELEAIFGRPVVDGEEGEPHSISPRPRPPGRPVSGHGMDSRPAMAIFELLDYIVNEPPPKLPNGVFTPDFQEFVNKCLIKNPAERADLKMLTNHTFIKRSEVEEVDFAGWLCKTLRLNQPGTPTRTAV
Tyrosine-protein kinase JAK2 (Homo sapiens), sequence (O60674 whole entry): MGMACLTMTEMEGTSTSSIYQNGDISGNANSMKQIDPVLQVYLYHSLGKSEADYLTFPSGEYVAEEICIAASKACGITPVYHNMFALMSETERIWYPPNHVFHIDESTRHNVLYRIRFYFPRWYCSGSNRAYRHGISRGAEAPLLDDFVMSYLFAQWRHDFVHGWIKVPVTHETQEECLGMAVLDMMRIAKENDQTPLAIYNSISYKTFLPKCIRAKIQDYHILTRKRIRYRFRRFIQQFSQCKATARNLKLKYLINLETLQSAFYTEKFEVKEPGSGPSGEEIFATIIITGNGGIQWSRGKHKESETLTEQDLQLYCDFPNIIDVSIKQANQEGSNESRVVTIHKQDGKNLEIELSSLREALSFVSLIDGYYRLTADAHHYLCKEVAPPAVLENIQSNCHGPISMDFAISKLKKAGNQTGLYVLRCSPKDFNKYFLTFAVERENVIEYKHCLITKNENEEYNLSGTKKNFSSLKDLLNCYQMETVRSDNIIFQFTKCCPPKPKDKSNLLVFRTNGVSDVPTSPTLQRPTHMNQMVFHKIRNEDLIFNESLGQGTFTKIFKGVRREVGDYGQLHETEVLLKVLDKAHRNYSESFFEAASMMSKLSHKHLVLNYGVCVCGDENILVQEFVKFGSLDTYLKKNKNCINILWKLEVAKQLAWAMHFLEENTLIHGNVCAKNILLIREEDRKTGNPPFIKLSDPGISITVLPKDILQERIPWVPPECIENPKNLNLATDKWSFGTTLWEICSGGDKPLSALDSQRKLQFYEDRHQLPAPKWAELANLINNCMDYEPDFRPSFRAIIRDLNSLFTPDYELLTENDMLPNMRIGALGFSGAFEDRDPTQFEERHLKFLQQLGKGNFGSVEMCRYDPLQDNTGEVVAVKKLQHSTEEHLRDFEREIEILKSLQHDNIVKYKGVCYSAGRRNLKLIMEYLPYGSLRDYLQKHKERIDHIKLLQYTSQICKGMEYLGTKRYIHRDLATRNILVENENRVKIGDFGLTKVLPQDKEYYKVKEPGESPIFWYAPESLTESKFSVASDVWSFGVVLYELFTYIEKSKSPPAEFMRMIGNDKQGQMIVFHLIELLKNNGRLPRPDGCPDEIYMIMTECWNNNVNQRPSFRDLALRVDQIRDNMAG
Mast/stem cell growth factor receptor Kit (Homo sapiens), P10721 [D816H], sequence (P10721 whole entry D816H): as the sequence (P10721 whole entry) above, with D816H counted along it
Fibroblast growth factor receptor 2 (Homo sapiens), sequence (P21802 22-821 limits assumed): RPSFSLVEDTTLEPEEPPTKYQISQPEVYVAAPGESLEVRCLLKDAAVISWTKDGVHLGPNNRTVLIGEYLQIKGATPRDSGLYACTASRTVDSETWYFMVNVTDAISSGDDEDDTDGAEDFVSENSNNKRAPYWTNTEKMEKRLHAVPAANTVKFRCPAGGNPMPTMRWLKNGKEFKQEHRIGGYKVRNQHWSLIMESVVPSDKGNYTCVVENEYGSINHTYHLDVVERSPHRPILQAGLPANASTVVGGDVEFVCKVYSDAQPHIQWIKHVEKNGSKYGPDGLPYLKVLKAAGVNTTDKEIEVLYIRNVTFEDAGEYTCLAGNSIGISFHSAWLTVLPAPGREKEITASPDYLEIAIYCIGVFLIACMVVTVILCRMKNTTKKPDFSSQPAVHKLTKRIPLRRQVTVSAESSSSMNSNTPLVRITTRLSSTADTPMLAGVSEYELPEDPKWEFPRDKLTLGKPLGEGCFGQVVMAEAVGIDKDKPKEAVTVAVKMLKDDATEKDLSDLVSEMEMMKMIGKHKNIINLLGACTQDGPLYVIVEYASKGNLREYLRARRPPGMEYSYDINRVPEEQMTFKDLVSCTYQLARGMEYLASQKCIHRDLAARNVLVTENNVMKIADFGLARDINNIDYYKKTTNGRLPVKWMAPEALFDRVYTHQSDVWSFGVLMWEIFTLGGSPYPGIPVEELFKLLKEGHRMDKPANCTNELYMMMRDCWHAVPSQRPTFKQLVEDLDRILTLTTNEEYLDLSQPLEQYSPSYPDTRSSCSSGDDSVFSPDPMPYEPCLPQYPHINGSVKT

For `COc1cc(-c2c[nH]c3ncc(-c4cccc(N)c4)cc23)cc(OC)c1OC`, the inhibition entry in test [1] was “Active”. Also, the residual activity in test [2] stood at 35%; in test [3], 100%; in [4] it was 78%; in test [5], 74%; in test [6] it was 88%; in test [7], 83%. For the same molecule, the residual activity in test [8] is 100%; in test [9], 100%; in test [10] it was 100%; in [11], 96%; in test [12], 22%; in [13], 100%. The values for the residual activity in test [14], in test [15] and in test [16] were 47%, 80% and 85%, respectively.

With `COc1ccc(-c2c[nH]c3ncc(-c4cc(OC)c(OC)c(OC)c4)cc23)cc1OC`, the inhibition entry in [1] is “Active”. Further, the residual activity in [2] came to 54%; in test [3], 100%; in [4], 48%; in [5], 93%; in test [6], 71%; in test [7] it was 46%. The residual activity came to 100% in test [8]; 91% in [9]; 76% in test [10]; 97% in test [11]; 69% in [12]; 100% in [13]. Besides, the values for the residual activity in test [14], in test [15] and in [16] were 48%, 86% and 25%, respectively.

For the molecule `COc1ccc(-c2c[nH]c3ncc(-c4ccc(C(=O)N5CCOCC5)c(N)c4)cc23)cc1OC`, the residual activity in [2] worked out at 54%; in test [3], 97%; in test [4], 3.2%; in [5], 72%; in [6] it was 27%; in test [7] it was 11%. The residual activity in [8] is 89%; in test [9], 96%; in test [10], 31%; in [11], 79%; in test [12], 0.75%; in test [13], 94%. The residual activity in test [14] stood at 17%; in [15], 53%; in test [16], 25%.

Regarding `COc1ccc(-c2cnc3[nH]cc(-c4ccc(OC)c(OC)c4)c3c2)cc1OC`, the inhibition entry in test [1] is “Active”. Besides, the residual activity in [2] stood at 34%; in [3] it was 100%; in [4], 49%; in [5], 92%; in [6], 68%; in [7] it was 26%. For the same molecule, the residual activity in test [8] turned out to be 100%; in test [9] it was 100%; in test [10] it was 65%; in test [11] it was 96%; in test [12], 12%; in test [13] it was 96%. Besides, the residual activity was 51% in test [14], 35% in test [15] and 16% in [16].

As for `COc1ccc(-c2cnc3[nH]cc(-c4ccc(OC)c(OC)c4)c3c2)cc1N`, the inhibition result in test [1] was “Active”. Further, the residual activity in test [2] was 47%; in test [3] it was 100%; in test [4], 46%; in [5] it was 90%; in [6], 71%; in [7], 11%. Further, the residual activity in test [8] was 100%; in test [9] it was 79%; in test [10] it was 91%; in test [11], 79%; in test [12], 31%; in [13], 93%. Also, the values for the residual activity in test [14], in [15] and in test [16] were 54%, 51% and 51%, respectively.
